Experimental data taken from patent EP0343961B1, “Aryl- and heteroaryl piperazinyl carboxamides having central nervous system activity” (priority 1988, dated 1989).
pIC50: −log10 of the molar value. Like-named read-outs stand apart in the source and are kept apart here.

Key:
[1] = target: T1, 5-HT1A serotonin receptor (Rattus norvegicus, UniProt P19327); assay: inhibition of 5-HT1A serotonin receptor binding (3H-8-OH-DPAT); design: species or system male Sprague Dawley rats; details: rat hippocampal tissue; for inhibition at 0.1 µM: at 100 nM
T1 construct: Hippocampal tissue from male Sprague Dawley rats is dissected and homogenized; from tissue; host or cells: hippocampus of male Sprague Dawley rats, membrane homogenate
T1 sequence (P19327 1-422): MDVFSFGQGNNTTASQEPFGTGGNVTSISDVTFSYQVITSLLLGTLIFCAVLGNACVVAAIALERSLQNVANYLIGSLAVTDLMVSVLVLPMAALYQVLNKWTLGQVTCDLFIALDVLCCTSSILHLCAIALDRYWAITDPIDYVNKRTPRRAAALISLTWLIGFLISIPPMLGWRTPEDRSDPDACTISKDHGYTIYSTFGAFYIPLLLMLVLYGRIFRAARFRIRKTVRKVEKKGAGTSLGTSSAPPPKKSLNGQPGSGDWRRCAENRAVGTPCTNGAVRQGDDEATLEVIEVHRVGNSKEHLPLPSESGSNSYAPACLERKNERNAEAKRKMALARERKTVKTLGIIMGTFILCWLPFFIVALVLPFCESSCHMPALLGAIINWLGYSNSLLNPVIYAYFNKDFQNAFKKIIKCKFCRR
Experimental: The assay is carried out as follows: Hippocampal tissue from male Sprague Dawley rats is dissected and homogenized on ice in 40 volumes of buffer A (50 mM Tris HCl, pH = 7.7) using a Polytron homogenizer at setting 5 for 3 x 15 second bursts. The homogenate is then centrifuged at 20,000 rpm (RC5-B; 50,000 g) and the supernatant discarded. The pellet is resuspended in 40 volumes of the same buffer and incubated at 37°C for 10 minutes to aid in the removal of endogenous serotonin. The homogenate is then centrifuged (as above) and the supernatant discarded. The pellet is then resuspended in 100 volumes of buffer B (50 mM Tris HCl, pH = 7.7 containing 0.1% ascorbate, 10 µM pargyline and 4 mM CaCl₂) and sonicated. An aliquot is taken for protein determination by the Lowry method and the remainder stored frozen at -70°C until used.
The homogenate (50 µL; 0.4-0.6 mg protein/sample) is incubated with 100 µL (1.5-1.8 nM) ³H-8-hydroxy-2-(di-n-propylamino)tetraline (³H-8-OH-DPAT) in a final volume of 2 mL of buffer for 10 minutes at 37°C. At the end of the incubation, 3 mL of cold buffer A are added to each tube, and the contents rapidly filtered through Whatman GF/B glass filters. The filters are then rapidly washed 2 times with 3 mL of the same buffer, placed in scintillation vials, and shaken for 15 minutes with 10 mL of Hydrofluor (National Diagnostics) scintillation cocktail. The vials are then counted in a Packard 460 CD scintillation counter.
Specific binding is defined as total binding less binding in the presence of excess unlabeled serotonin (1 µM). Binding in the presence of various concentrations of test drug is expressed as a percent of specific binding when no drug is present. […] Linear regression analysis then yields a straight line with 95% confidence limits from which an IC₅₀ can be inversely predicted.

5-HT₂ = target: T2, 5-HT₂ (Rattus norvegicus, UniProt P14842); assay: 5-HT2 inhibition of 3H-spiroperidol binding, brain cortex homogenate; details: read-out: % Inhibition at 1 µM 5-HT₂
T2 construct: employing rat brain cortex homogenate as the receptor tissue; from tissue; host or cells: rat brain cortex, membrane homogenate

M1 muscarinic receptor = target: T3, M1 muscarinic receptor (Rattus norvegicus, UniProt P08482); assay: M1 muscarinic receptor binding ([3H] pirenzipine, hippocampus tissue)
T3 construct: from tissue; host or cells: rat hippocampus, membrane fraction
T3 sequence (P08482 1-460): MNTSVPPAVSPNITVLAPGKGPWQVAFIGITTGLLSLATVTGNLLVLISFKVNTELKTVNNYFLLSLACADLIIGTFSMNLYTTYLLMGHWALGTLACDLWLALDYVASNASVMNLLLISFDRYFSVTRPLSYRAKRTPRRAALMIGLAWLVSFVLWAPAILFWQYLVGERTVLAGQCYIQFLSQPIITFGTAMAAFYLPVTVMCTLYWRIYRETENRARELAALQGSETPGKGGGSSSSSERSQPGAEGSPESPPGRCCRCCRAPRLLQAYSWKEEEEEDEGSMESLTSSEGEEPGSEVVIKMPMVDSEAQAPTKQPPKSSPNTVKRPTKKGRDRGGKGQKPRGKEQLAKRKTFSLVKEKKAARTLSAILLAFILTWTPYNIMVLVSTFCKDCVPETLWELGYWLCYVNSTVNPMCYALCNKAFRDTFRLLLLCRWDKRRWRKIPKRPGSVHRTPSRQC
Experimental: The M1 muscarinic receptor binding properties of the compounds of this invention were established as follows:
The resulting pellet is resuspended in the original volume of 0.32 M aqueous sucrose. The sample is then diluted 1:2 in 10 mM Na₂HPO₄/KH₂PO₄ buffer (pH = 7.4). A 100 µL sample of the buffered tissue suspension is incubated at 25°C for 60 minutes in the dark with 10 µL of test compound or vehicle for control and [³H] pirenzipine (0.5 nM, 0.04 µCi) q.s. 1 milliliter with the buffer solution. Atropine sulfate (2 µM) is added to half the samples being processed. Binding is terminated by vacuum filtration onto Whatman GF/B filters which are washed three times with the buffer solution (3 ml/wash, 4°C). […] Specific [³H] PZ binding is defined as total binding minus binding in the presence of 2 µM atropine sulfate.

M2 receptor = target: T4, M2 receptor (Rattus norvegicus, UniProt P10980); assay: M2 receptor binding ([3H] quinuclidinyl benzilate, cerebellum tissue); details: [3H] quinuclidinyl benzilate 0.23 nM, read-out: IC₅₀for M₂
T4 sequence (P10980 1-466): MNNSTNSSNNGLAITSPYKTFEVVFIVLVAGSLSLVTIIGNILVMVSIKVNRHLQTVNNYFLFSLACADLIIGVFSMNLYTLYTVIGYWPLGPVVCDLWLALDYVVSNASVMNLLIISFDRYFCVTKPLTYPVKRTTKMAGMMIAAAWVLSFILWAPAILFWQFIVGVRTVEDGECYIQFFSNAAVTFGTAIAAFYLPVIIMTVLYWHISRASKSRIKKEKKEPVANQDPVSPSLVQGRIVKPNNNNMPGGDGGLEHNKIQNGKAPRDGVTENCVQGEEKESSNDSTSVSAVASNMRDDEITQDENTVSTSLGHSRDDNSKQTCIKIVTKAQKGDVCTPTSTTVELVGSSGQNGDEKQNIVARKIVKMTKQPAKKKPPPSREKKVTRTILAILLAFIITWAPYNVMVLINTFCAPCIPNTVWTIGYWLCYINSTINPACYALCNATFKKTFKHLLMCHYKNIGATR

[2] = at 1 µM, rat brain cortex homogenate, 3H-spiroperidol

T2 sequence (P14842 whole entry): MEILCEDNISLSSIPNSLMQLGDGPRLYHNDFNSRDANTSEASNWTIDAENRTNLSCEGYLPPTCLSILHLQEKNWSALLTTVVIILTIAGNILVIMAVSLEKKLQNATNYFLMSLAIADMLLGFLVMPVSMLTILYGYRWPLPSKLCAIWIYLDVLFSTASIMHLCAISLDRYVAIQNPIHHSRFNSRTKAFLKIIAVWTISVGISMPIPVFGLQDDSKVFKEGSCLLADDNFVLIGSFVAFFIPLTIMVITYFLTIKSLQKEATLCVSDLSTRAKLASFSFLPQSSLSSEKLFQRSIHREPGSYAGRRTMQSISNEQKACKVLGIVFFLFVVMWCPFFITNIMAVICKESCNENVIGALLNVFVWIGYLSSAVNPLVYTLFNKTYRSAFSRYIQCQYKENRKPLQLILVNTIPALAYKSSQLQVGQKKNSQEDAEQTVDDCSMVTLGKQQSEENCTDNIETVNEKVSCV

SMILES | inhibition at 1 µM [1] | other results
O=C1CC2(CCCC2)CC(=O)N1CCCCN1CCN(c2ncccn2)CC1 [Buspirone, reference compound] | 94% | 
COc1ccccc1N1CCN(CCCNC(=O)C23CC4CC(CC(C4)C2)C3)CC1 [Example 1, N-[3-[4-(2-Methoxyphenyl)-1-piperazinyl]propyl]tricyclo[3.3.1.1^3,7]decan-1-carboxamide] | 98% | Ki [1]: 1 nM; inhibition at 1 µM (5-HT₂; [2]): 92%
O=C(NCCN1CCN(c2ncccn2)CC1)C12CC3CC(CC(C3)C1)C2 [Example 2, N-[2-[4-(2-Pyrimidyl)-1-piperazinyl]ethyl]tricyclo[3.3.1.1^3,7]decane-1-carboxamide] | 97% | Ki [1]: 1 nM; inhibition at 1 µM (5-HT₂; [2]): 91%
COc1ccccc1N1CCN(CCNC(=O)C23CC4CC(CC(C4)C2)C3)CC1 [Example 3, N-[2-[4-(2-Methoxyphenyl)-1-piperazinyl]ethyl]tricyclo[3.3.1.1^3,7]decane-1-carboxamide] | 97% | 
O=C(NCCN1CCN(c2cccc(Cl)c2)CC1)C12CC3CC(CC(C3)C1)C2 [Example 4, N-[2-[4-(3-Chlorophenyl)-1-piperazinyl]ethyl]tricyclo[3.3.1.1^3,7]decane-1-carboxamide] | 100% | 
O=C(NCCN1CCN(c2ncccn2)CC1)c1cc2ccccc2o1 [Example 5, N-[2-[4-(2-Pyrimidyl)-1-piperazinyl]ethyl]benzofurane-2-carboxamide] | 83% | 
COc1ccccc1N1CCN(CCCNC(=O)c2cc3ccccc3o2)CC1 [Example 6, N-[3-[4-(2-Methoxyphenyl)-1-piperazinyl]propyl]benzofurane-2 carboxamide] | 94% | 
COc1ccccc1N1CCN(CCCNC(=O)c2cc3ccccc3[nH]2)CC1 [Example 7, N-[3-[4-(2-Methoxyphenyl)-1-piperazinyl]propyl]-(1H)-indole-2 carboxamide] | 91% | 
O=C(NCCCN1CCN(c2cccc(Cl)c2)CC1)C12CC3CC(CC(C3)C1)C2 [Example 8, N-[3-[4-(3-Chlorophenyl)-1-piperazinyl]propyl]tricyclo[3.3.1.1^3,7]decane-1-carboxamide] | 94% | 
CC12CC3CC(C1)CC(CC(=O)NCCN1CCN(c4ncccn4)CC1)(C3)C2 [Example 9, N-[2-[4-(2-Pyrimidyl)-1-piperazinyl]ethyl]-3-methyltricyclo[3.3.1.1^3,7]decane-1-acetic Acid Carboxamide] | 93% | 
O=C(NCCCN1CCN(c2ncccn2)CC1)C12CC3CC(CC(C3)C1)C2 [Example 10, N-[3-[4-(2-Pyrimidyl)-1-piperazinyl]propyl]tricyclo[3.3.1.1^3,7]decane-1-carboxamide] | 82% | 
CC12CC3CC(C1)CC(CC(=O)NCCN1CCN(c4cccc(Cl)c4)CC1)(C3)C2 [Example 11, N-[2-[4-(3-Chlorophenyl)-1-piperazinyl]ethyl]-3-methyltricyclo[3.3.1.1^3,7]decane-1-acetic Acid Carboxamide] | 91% | 
COc1ccccc1N1CCN(CCNC(=O)CC23CC4CC(CC(C)(C4)C2)C3)CC1 [Example 12, N-[2-[4-(2-Methoxyphenyl)-1-piperazinyl]ethyl]-3-methyltricyclo[3.3.1.1^3,7]decane-1-acetic Acid Carboxamide] | 98% | 
O=C(NCCN1CCN(c2ncccn2)CC1)C12CC3CC(CC1C3)C2 [Example 13, N-[2-[4-(2-Pyrimidyl)-1-piperazinyl]ethyl]hexahydro-2,5-methanopentalene-3a(1H)-carboxamide] | 97% | 
COc1ccccc1N1CCN(CCNC(=O)C23CC4CC(CC2C4)C3)CC1 [Example 14, N-[2-[4-(2-Methoxyphenyl)-1-piperazinyl]ethyl]hexahydro-2,5-methanopentalene-3a(1H)-carboxamide] |  | inhibition at 0.1 µM [1]: 100%
O=C(NCCN1CCN(c2cccc(Cl)c2)CC1)C12CC3CC(CC1C3)C2 [Example 15, N-[2-[4-(3-Chlorophenyl)-1-piperazinyl]ethyl]hexahydro-2,5-methanopentalene-3a(1H)-carboxamide] |  | inhibition at 0.1 µM [1]: 99%; pIC50 (M1 muscarinic receptor; rat hippocampus, [3H] pirenzipine 0.5 nM, read-out: IC₅₀for M₁): 6.62; M₂/M₁ Ratio (M1 muscarinic receptor; ratio of IC50 for M2 to IC50 for M1): 46; pIC50 (M2 receptor): 4.96
O=C(NCCCN1CCN(c2ncccn2)CC1)C12CC3CC(CC1C3)C2 [Example 17, N-[3-[4-(2-Pyrimidyl)-1-piperazinyl]propyl]hexahydro-2,5-methanopentalene-3a(1H)-carboxamide] | 88% | Ki [1]: 67 nM
COc1ccccc1N1CCN(CCCNC(=O)C23CC4CC(CC2C4)C3)CC1 [Example 18, N-[3-[4-(2-Methoxyphenyl)-1-piperazinyl]propyl]hexahydro-2,5-methanopentalene-3a(1H)-carboxamide] | 99% | 
O=C(NCCCN1CCN(c2cccc(Cl)c2)CC1)C12CC3CC(CC1C3)C2 [Example 19, N-[3-[4-(3-Chlorophenyl)-1-piperazinyl]propyl]hexahydro-2,5-methanopentalene-3a(1H)-carboxamide] |  | inhibition at 0.1 µM [1]: 75%; Ki [1]: 20 nM
CC1(C)CC(=O)N(CCCCN2CCN(c3ncccn3)CC2)C(=O)C1 [Gepirone, 4,4-dimethyl-1-[4-[4-(2-pyrimidinyl)-1-piperazinyl]-butyl]-2,6-piperidinedione, reference compound] |  | inhibition at 1 µM (5-HT₂): 20%
